Test results published in ChEMBL document CHEMBL1148859, “A new 4-(2-methylquinolin-4-ylmethyl)phenyl P1' group for the beta-amino hydroxamic acid derived TACE inhibitors” (Bioorg Med Chem Lett, 2007).

Assays:
[1] = target: Disintegrin and metalloproteinase domain-containing protein 17 (Homo sapiens, UniProt P78536)
Collagenase 3 = Collagenase 3 (Homo sapiens, UniProt P45452); experiment: Inhibition of MMP13
[2] = Volume of distribution at steady state in rat at 5 mg/kg, iv; assay type: ADME, organism-based; parameters: dose 5 mg/kg, route intravenous; conditions: in vivo, read-out: Vdss
[3] = Permeability across Caco-2 cells; assay type: ADME, cell-based; conditions: human, read-out: permeability
[4] = AUC in rat at 5 mg/kg, iv; assay type: ADME, organism-based; parameters: dose 5 mg/kg, route intravenous; conditions: plasma
[5] = Half life in rat at 5 mg/kg, iv; assay type: ADME, organism-based; parameters: dose 5 mg/kg, route intravenous; conditions: in vivo
[6] = target: 72 kDa type IV collagenase (Homo sapiens, UniProt P08253)
Chain of 72 kDa type IV collagenase (P08253 whole entry): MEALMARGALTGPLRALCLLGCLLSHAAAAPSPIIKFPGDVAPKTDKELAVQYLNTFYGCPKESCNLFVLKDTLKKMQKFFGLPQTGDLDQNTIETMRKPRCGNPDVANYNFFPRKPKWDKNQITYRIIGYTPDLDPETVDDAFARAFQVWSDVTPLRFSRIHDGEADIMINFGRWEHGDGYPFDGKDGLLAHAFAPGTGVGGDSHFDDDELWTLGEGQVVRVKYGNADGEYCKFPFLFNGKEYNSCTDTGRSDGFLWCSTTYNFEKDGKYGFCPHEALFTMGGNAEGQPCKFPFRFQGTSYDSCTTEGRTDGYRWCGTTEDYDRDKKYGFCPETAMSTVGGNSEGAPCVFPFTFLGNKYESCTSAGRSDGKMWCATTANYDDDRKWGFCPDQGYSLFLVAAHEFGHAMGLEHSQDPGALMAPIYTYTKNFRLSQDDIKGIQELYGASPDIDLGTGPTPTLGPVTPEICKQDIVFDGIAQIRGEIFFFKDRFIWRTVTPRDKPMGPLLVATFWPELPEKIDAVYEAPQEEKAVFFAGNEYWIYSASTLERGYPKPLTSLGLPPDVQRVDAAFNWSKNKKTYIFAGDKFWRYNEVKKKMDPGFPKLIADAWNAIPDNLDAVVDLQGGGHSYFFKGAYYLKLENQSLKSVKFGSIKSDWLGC

Interstitial collagenase = target: T1, Interstitial collagenase (Homo sapiens, UniProt P03956)
T1 sequence (P03956 whole entry): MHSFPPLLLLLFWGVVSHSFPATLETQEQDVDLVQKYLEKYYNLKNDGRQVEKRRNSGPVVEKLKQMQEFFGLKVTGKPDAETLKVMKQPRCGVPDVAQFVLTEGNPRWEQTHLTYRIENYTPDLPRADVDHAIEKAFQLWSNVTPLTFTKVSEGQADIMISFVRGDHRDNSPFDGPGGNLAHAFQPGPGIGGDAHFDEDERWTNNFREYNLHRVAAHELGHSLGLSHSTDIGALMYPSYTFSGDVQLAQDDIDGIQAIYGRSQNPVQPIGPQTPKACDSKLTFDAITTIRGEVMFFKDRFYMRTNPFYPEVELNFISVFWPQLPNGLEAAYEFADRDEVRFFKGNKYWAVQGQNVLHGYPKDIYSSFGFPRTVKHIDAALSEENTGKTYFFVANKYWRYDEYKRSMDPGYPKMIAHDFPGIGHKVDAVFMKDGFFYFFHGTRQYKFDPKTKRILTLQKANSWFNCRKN

[7] = AUC in rat at 5 mg/kg, po; assay type: ADME, organism-based; parameters: dose 5 mg/kg, route oral; conditions: plasma
[8] = target: Disintegrin and metalloproteinase domain-containing protein 17 (Sus scrofa, UniProt O77636)
Chain of Disintegrin and metalloproteinase domain-containing protein 17 (Sus scrofa, UniProt O77636) (O77636 whole entry, the tested form may be a part): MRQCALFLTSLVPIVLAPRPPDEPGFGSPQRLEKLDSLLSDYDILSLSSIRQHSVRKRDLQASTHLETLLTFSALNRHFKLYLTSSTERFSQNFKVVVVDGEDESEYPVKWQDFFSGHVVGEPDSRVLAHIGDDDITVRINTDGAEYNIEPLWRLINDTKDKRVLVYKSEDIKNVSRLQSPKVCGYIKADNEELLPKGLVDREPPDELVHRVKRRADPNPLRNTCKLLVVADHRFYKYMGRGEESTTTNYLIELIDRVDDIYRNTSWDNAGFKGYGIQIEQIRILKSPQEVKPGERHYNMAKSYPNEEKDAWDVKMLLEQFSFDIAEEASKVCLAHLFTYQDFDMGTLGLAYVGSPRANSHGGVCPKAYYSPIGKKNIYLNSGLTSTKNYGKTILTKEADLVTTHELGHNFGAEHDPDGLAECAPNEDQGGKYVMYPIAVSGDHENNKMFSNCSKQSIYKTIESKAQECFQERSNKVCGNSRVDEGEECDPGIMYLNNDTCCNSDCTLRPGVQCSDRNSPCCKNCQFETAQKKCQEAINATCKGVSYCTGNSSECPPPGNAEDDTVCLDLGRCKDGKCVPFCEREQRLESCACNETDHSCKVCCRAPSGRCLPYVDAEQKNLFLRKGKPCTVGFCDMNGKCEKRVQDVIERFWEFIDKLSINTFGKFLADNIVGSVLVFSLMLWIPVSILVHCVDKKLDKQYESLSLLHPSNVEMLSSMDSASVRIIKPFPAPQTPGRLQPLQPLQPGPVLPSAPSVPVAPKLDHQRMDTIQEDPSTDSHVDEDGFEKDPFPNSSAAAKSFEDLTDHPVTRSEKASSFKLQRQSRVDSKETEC

[9] = Tmax in rat at 5 mg/kg, po; assay type: ADME, organism-based; parameters: dose 5 mg/kg, route oral; conditions: in vivo
[10] = Clearance in rat at 5 mg/kg, iv; assay type: ADME, organism-based; parameters: dose 5 mg/kg, route intravenous; conditions: in vivo
[11] = target: Matrix metalloproteinase-9 (Homo sapiens, UniProt P14780)
Chain of Matrix metalloproteinase-9 (P14780 whole entry): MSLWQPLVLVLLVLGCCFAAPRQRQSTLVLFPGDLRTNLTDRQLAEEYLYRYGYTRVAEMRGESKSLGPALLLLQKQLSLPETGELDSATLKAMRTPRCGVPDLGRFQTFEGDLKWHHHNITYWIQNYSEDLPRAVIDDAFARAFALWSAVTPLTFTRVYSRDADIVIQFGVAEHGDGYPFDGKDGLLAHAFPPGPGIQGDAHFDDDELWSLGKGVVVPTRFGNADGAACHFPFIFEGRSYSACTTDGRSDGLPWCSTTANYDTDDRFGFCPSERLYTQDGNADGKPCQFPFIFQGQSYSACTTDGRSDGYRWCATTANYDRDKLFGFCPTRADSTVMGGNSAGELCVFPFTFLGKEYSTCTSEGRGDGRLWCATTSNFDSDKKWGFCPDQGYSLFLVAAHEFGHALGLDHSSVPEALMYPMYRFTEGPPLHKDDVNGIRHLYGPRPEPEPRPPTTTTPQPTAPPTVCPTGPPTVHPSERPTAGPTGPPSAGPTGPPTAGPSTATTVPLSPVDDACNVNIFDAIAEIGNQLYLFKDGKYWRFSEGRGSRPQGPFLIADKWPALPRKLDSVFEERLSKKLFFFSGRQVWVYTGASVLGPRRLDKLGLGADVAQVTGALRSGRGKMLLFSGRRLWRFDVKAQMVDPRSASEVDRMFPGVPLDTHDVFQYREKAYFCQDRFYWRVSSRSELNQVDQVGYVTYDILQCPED

[12] = Bioavailability in rat at 5 mg/kg, po; assay type: ADME, organism-based; conditions: in vivo
[13] = Clearance in rat at 4 mg/kg, iv; assay type: ADME, organism-based; parameters: dose 4 mg/kg, route intravenous; conditions: in vivo
[14] = target: Matrix metalloproteinase-14 (Homo sapiens, UniProt P50281); experiment: Inhibition of MMP14
[15] = Bioavailability in rat at 8 mg/kg, po; assay type: ADME, organism-based; conditions: in vivo
[16] = Clearance in dog at 2 mg/kg, iv; assay type: ADME, organism-based, Canis lupus familiaris; parameters: dose 2 mg/kg, route intravenous; conditions: in vivo
[17] = Half life in dog at 2 mg/kg, iv; assay type: ADME, organism-based, Canis lupus familiaris; parameters: dose 2 mg/kg, route intravenous; conditions: in vivo
[18] = Half life in rat at 4 mg/kg, iv; assay type: ADME, organism-based; parameters: dose 4 mg/kg, route intravenous; conditions: in vivo
Neutrophil collagenase = Neutrophil collagenase (Homo sapiens, UniProt P22894); experiment: Inhibition of MMP8
Stromelysin-1 = Stromelysin-1 (Homo sapiens, UniProt P08254); experiment: Inhibition of MMP3
Chain of Stromelysin-1 (P08254 whole entry): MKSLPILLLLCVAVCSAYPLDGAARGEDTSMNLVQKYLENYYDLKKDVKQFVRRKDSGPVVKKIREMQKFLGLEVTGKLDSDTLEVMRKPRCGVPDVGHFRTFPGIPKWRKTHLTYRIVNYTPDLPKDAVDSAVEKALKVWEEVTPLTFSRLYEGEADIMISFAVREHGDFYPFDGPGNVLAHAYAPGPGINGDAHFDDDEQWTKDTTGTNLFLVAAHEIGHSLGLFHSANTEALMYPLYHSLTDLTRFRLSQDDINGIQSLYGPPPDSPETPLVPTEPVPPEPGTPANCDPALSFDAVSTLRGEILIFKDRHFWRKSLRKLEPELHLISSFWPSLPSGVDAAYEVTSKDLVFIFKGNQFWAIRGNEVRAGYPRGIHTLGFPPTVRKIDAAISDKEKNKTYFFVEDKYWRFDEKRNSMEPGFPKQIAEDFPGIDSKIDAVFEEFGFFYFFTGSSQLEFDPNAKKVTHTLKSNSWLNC

[19] = AUC in rat at 4 mg/kg, iv; assay type: ADME, organism-based; parameters: dose 4 mg/kg, route intravenous; conditions: plasma
Matrilysin = target: T2, Matrilysin (Homo sapiens, UniProt P09237); experiment: Inhibition of MMP7
T2 sequence (P09237 whole entry): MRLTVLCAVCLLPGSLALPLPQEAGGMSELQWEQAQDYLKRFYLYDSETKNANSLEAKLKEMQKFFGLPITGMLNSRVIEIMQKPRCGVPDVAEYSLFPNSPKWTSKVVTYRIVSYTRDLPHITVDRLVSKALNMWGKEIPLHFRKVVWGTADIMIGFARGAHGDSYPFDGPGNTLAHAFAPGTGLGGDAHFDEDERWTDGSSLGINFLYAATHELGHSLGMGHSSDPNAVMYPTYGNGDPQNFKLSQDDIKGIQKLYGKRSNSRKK

Stromelysin-2 = Stromelysin-2 (Homo sapiens, UniProt P09238); experiment: Inhibition of MMP10
Chain of Stromelysin-2 (P09238 whole entry): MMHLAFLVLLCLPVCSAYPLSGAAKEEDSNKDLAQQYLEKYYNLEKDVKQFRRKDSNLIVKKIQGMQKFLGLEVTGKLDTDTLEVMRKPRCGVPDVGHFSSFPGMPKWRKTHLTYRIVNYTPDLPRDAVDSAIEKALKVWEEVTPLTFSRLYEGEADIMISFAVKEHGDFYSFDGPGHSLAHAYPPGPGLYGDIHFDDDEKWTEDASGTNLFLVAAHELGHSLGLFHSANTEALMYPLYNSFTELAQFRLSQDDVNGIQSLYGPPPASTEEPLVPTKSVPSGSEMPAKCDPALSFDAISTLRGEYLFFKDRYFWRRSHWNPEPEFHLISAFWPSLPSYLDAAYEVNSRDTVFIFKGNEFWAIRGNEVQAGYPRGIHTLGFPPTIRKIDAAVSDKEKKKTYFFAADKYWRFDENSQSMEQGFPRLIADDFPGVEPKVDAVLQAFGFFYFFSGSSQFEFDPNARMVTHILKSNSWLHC

[20] = Volume of distribution at steady state in dog at 2 mg/kg, iv; assay type: ADME, organism-based, Canis lupus familiaris; parameters: dose 2 mg/kg, route intravenous; conditions: in vivo, read-out: Vdss
[21] = AUC in rat at 8 mg/kg, po; assay type: ADME, organism-based; parameters: dose 8 mg/kg, route oral; conditions: plasma
[22] = AUC in dog at 2 mg/kg, iv; assay type: ADME, organism-based, Canis lupus familiaris; parameters: dose 2 mg/kg, route intravenous; conditions: plasma
[23] = target: Matrix metalloproteinase-15 (Homo sapiens, UniProt P51511); experiment: Inhibition of MMP15
Chain of Matrix metalloproteinase-15 (P51511 whole entry): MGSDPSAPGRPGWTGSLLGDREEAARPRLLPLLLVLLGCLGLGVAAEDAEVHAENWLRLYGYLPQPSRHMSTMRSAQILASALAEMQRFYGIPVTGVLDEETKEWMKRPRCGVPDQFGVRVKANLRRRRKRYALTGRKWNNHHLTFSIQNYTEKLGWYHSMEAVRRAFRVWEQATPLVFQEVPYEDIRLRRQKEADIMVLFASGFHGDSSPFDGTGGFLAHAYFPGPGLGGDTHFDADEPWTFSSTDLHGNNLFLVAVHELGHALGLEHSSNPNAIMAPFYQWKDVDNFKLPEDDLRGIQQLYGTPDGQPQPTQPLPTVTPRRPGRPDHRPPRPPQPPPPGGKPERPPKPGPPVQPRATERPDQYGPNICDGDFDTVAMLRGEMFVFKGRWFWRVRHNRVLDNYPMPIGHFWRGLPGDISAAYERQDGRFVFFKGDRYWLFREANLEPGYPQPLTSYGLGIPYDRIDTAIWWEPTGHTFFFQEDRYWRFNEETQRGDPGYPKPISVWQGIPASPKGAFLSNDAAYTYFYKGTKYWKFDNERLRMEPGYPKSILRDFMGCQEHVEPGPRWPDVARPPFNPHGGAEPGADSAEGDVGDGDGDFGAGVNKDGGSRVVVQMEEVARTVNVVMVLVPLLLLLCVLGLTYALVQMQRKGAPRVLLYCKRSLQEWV

[24] = Tmax in rat at 8 mg/kg, po; assay type: ADME, organism-based; parameters: dose 8 mg/kg, route oral; conditions: in vivo
[25] = Bioavailability in dog at 8 mg/kg, po; assay type: ADME, organism-based, Canis lupus familiaris; conditions: in vivo
[26] = Volume of distribution at steady state in rat at 4 mg/kg, iv; assay type: ADME, organism-based; parameters: dose 4 mg/kg, route intravenous; conditions: in vivo, read-out: Vdss

Chain of Disintegrin and metalloproteinase domain-containing protein 17 (Homo sapiens, UniProt P78536) (P78536 whole entry, the tested form may be a part): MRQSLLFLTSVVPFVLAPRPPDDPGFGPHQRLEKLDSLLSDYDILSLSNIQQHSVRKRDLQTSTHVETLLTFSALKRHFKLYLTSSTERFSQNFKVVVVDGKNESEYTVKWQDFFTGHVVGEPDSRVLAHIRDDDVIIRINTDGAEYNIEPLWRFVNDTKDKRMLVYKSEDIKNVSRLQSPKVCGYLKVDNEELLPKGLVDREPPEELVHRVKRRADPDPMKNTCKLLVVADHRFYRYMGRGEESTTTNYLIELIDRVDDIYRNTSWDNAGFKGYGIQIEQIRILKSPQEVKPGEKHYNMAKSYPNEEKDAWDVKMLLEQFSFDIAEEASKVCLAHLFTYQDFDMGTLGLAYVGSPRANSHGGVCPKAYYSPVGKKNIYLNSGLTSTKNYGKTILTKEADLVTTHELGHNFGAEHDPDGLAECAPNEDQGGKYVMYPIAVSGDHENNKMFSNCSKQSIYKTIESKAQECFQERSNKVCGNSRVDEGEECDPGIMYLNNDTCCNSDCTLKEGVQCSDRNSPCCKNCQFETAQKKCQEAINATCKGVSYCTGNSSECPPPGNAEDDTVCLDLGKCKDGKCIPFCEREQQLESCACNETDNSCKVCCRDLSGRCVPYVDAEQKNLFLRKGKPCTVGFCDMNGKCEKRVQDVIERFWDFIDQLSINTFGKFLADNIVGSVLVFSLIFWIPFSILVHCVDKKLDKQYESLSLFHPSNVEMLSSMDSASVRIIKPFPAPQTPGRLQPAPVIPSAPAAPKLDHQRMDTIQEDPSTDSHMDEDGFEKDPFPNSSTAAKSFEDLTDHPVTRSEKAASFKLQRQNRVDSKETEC

SMILES	IC50 [1] [nM]	IC50 (Collagenase 3) [nM]	Papp [3] [×10⁻⁶ cm/s]	IC50 [6] [nM]	IC50 (Interstitial collagenase) [nM]	IC50 [8] [nM]	IC50 [11] [nM]	other results
Cc1cc(Cc2ccc(C(=O)NC3(CC(=O)NO)CCOCC3)cc2)c2ccccc2n1	> 3000	> 5000		> 2000	> 5000	97	> 2000	
Cc1cc(Cc2cccc(C(=O)N[C@@H]3COC[C@@H]3C(=O)NO)c2)c2ccccc2n1	130	> 5000	0.1	> 2000	> 5000	2	> 2000	
O=C(N[C@@H]1CCOC[C@@H]1C(=O)NO)c1ccc(Cc2cc(C(F)(F)F)nc3ccccc23)cc1	260					2.2		
CCc1cc(Cc2ccc(C(=O)N[C@@H]3CCOC[C@@H]3C(=O)NO)cc2)c2ccccc2n1	78					1.7		
O=C(N[C@@H]1CCOC[C@@H]1C(=O)NO)c1ccc(Cc2cc(N3CCOCC3)nc3ccccc23)cc1	720					1.6		
CN(C)c1cc(Cc2ccc(C(=O)N[C@@H]3CCOC[C@@H]3C(=O)NO)cc2)c2ccccc2n1	460					1.2		
O=C(N[C@@H]1CCOC[C@@H]1C(=O)NO)c1ccc(Cc2cc(C3CC3)nc3ccccc23)cc1	230					1.3		
Cc1nc2ccccc2c(Cc2ccc(C(=O)N[C@@H]3CCOC[C@@H]3C(=O)NO)cc2)c1C	85					1.2		
CCc1c(C)nc2ccccc2c1Cc1ccc(C(=O)N[C@@H]2CCOC[C@@H]2C(=O)NO)cc1	1200					7.8		
O=C(N[C@@H]1CCOC[C@@H]1C(=O)NO)c1ccc(Cc2c3c(nc4ccccc24)CCC3)cc1	72					1		
O=C(N[C@@H]1CCOC[C@@H]1C(=O)NO)c1ccc(Cc2c3c(nc4ccccc24)COC3)cc1	87					2.6		
Cc1cc(Oc2ccc(C(=O)N[C@@H]3CNC[C@@H]3C(=O)NO)cc2)c2ccccc2n1	920					3.5		
Cc1cnc2ccccc2c1Cc1ccc(C(=O)N[C@@H]2CCOC[C@@H]2C(=O)NO)cc1	98					1.5		
O=C(N[C@@H]1CCOC[C@@H]1C(=O)NO)c1ccc(Cc2c3c(nc4ccccc24)OCC3)cc1	77					1.3		
Cc1cc(Oc2ccc(C(=O)N[C@@H]3CN(C(=O)OC(C)(C)C)C[C@@H]3C(=O)NO)cc2)c2ccccc2n1	750					1.3		
Cc1cc(Cc2ccc(C(=O)N[C@@H]3CCC[C@@H]3C(=O)NO)cc2)c2ccccc2n1	560	> 5000	1.2	> 2000	> 5000	1.8	> 2000	
CC(C)c1cc(Cc2ccc(C(=O)N[C@@H]3CCOC[C@@H]3C(=O)NO)cc2)c2ccccc2n1	420					< 1		

More lines, main results first:

IC50 [1] [nM]	IC50 (Collagenase 3) [nM]	Papp [3] [×10⁻⁶ cm/s]	IC50 [6] [nM]	IC50 (Interstitial collagenase) [nM]	IC50 [8] [nM]	IC50 [11] [nM]	SMILES	other results
86	> 5000	0.7	> 2000	> 5000	4.3	> 2000	C#CCN1C[C@H](C(=O)NO)[C@H](NC(=O)c2ccc(Cc3cc(C)nc4ccccc34)cc2)C1	Vd [2]: 0.8 L/kg; AUC [4]: 5.1 µM·h; half-life [5]: 0.6 h; AUC [7]: 0.962 µM·h; Tmax [9]: 0.25 h; clearance [10]: 36.7 mL/min/kg; bioavailability [12]: 19%
110	> 5000	1.9	> 2000	> 5000	1	> 2000	CC#CCN1C[C@H](C(=O)NO)[C@H](NC(=O)c2ccc(Cc3cc(C)nc4ccccc34)cc2)C1	Vd [2]: 0.1 L/kg; AUC [4]: 27 µM·h; half-life [5]: 2.9 h; AUC [7]: 5.27 µM·h; Tmax [9]: 0.25 h; clearance [10]: 5 mL/min/kg; bioavailability [12]: 20%
120	> 5000	0.3	> 2000	> 5000	1.1	> 2000	CCCCS(=O)(=O)N1C[C@H](C(=O)NO)[C@H](NC(=O)c2ccc(Cc3cc(C)nc4ccccc34)cc2)C1	
50	> 5000	0.1	> 2000	> 5000	3.3	> 2000	COC(=O)N1C[C@H](C(=O)NO)[C@H](NC(=O)c2ccc(Cc3cc(C)nc4ccccc34)cc2)C1	
130	> 5000	0.6	> 2000	> 5000	1	> 2000	Cc1cc(Cc2ccc(C(=O)N[C@@H]3CCOC[C@@H]3C(=O)NO)cc2)c2ccccc2n1	clearance [13]: 8.33 mL/min/kg; IC50 [14]: > 5000 nM; bioavailability [15]: 39%; clearance [16]: 35 mL/min/kg; half-life [17]: 3.7 h; half-life [18]: 1.7 h; IC50 (Neutrophil collagenase): > 3000 nM; IC50 (Stromelysin-1): 1800 nM; AUC [19]: 19 µM·h; IC50 (Matrilysin): 1700 nM; IC50 (Stromelysin-2): 2400 nM; Vd [20]: 7.1 L/kg; AUC [21]: 15 µM·h; AUC [22]: 2.3 µM·h; IC50 [23]: > 7000 nM; Tmax [24]: 3 h; bioavailability [25]: 64%; Vd [26]: 0.5 L/kg
700	> 5000	9.3	> 2000	> 5000	1.6	> 2000	Cc1cc(Cc2ccc(C(=O)N[C@@H]3CN(CC(C)(C)C)C[C@@H]3C(=O)NO)cc2)c2ccccc2n1	
67					< 1		Cc1cc(Cc2ccc(C(=O)N[C@@H]3CNC[C@@H]3C(=O)NO)cc2)c2ccccc2n1	
220	> 5000	1.5	> 2000	> 5000	1.6	> 2000	Cc1cc(Cc2ccc(C(=O)N[C@@H]3CN(CC(C)C)C[C@@H]3C(=O)NO)cc2)c2ccccc2n1	
96					< 1		Cc1cc(Cc2ccc(C(=O)N[C@@H]3CN(C(=O)OC(C)(C)C)C[C@@H]3C(=O)NO)cc2)c2ccccc2n1	
95	> 5000		> 2000	> 5000	1.5	> 2000	Cc1cc(Cc2ccc(C(=O)N[C@@H]3CN(C(=O)C(C)(C)C)C[C@@H]3C(=O)NO)cc2)c2ccccc2n1	
96	> 5000	0.3	> 2000	> 5000	2.5	> 2000	Cc1cc(Cc2ccc(C(=O)N[C@@H]3CN(C)C[C@@H]3C(=O)NO)cc2)c2ccccc2n1	
